Article PMC6923382, “Small molecules that inhibit TNF signalling by stabilising an asymmetric form of the trimer” (Nature Communications, 2019)
“Also recorded” adds a separate entry of the source.

Experiments:
[1] = target: T1, TNF (Homo sapiens, UniProt P01375); assay: Biacore kinetics of binding; parameters: Human TNF (CID2043, UniProt P01375 residues 77–233); 6XHis-Smt3 (N, cleaved yes); host or cells: E. coli TOP10; details: SPR, multicycle, Biacore T100
Experimental: Surface plasmon resonance using a Biacore T100/T200 was used to measure the association rate constant (ka), the dissociation rate constant (kd) and the affinity (KD) of compounds. TNF (VCID 2043 Beryllium) was immobilised to approximately 5 kRU as described above and equilibrated for at least 5 h in HBS P + buffer with 5% DMSO. UCB-6876 was serially diluted from 187.5 µM, flowing over the immobilised TNF at 50 µL/min for 3 min before allowing full dissociation under flow for at least 6 min. […] […] The compounds were allowed to dissociate for 2 h under flow.
Target sequence in this assay (P01375 77-233): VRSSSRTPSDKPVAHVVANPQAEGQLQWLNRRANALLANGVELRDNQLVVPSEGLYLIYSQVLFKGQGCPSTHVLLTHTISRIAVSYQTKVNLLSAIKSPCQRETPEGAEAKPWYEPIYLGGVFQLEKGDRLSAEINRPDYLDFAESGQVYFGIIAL

[2] = target: T1, TNF; assay: Biacore binding with and without non-ionic detergent; parameters: stabilise an asymmetrical form of the soluble TNF trimer; details: 0.01% v/v Triton X-100 and 0.025% v/v Tween-80; Biacore T200
Experimental: Experiments to show any effect of addition of non-ionic detergent were performed on a Biacore, with human TNF on the solid phase and compounds in solution phase in the presence and absence of 0.01% v/v Triton X-100 and 0.025% v/v Tween-80.
Three Biacore T200s were treated with sodium hypochlorite to remove any traces of detergent. Each machine was equilibrated in either HBS with no detergent (control), HBS:
Tween-P80 (0.025% v/v) or HBS: Triton X-100 (0.01% v/v). Human TNF was tethered to ~ 2000 RU before equilibration in the equivalent control or detergent buffers plus 1% DMSO. […]
were fitted to a BIAevaluation T200 1:1 algorithm and the fitted data shown. […]
Target sequence in this assay (P01375 77-233 limits assumed): as the sequence (P01375 77-233) above

[3] = tested on: TNFR1 extracellular domain and control proteins; assay: Biacore SPR binding to control surfaces; details: capture antibody plus TNFR1, capture antibody
Description: (§1) BIA (Biomolecular Interaction Analysis) uses SPR to measure the binding of compounds to a protein immobilised on a chip surface. For this purpose a Biacore A100/4000 (GE Healthcare) was used. A CM5 sensor was immobilised via amine coupling on flow cell 1 with human Fc antibody domain (10k response units; kRU) and TNFR-Fc captured (2.5 kRU), flow cell 2 TNF (11 kRU), flow cell 3 was left blank (for non-specific binding), flow cell 4 TNFR-Fc (10 kRU), and flow cell 5 goat anti-human Fc 16 kRU). The sensor surface was then equilibrated in HBS-P (10 mM HEPES pH 7.4, 0.15 M NaCl, 0.005% Surfactant P20, BIAcore, GE Healthcare) with 5% DMSO for at least 5 h. Compounds were diluted from 100 mM stocks into DMSO matched buffer and then flowed over the immobilised flow cells at a concentration of 250 µM at the maximum flow rate of 30 μL/min. Background subtraction binding curves were analysed using the Biacore A100 BIA evaluation software version 1.1 following standard procedures.

[4] = target: T1, TNF; assay: Mass spectrometry monomer exchange; type: biochemical; parameters: stabilise an asymmetrical form of the soluble TNF trimer; details: human TNF pre-incubated with compound, mixed 1:1 with mouse TNF
Experimental: Mouse and human TNF protein were made up to a concentration of 2 mg/mL (20 mM ammonium acetate, pH 7.4) and desalted and buffer-exchanged using Zeba columns. The protein was then diluted to 20 μM in ammonium acetate buffer. An aliquot of each was mixed 1:1 and analysed at various time points. Human TNF was incubated (1:1, v/v) with compound (20 μΜ), 4% DMSO in 20 mM ammonium acetate) and mixed with mouse TNF (1:1) and tested at various time points using an Advion Nanomate (for sample introduction by nanospray) and ThermoFisher Exactive Plus EMR Mass Spectrometer. The following settings were utilised on the mass spectrometer: scan range 1000 to 8000 m/z; spray voltage 1.5 kV; capillary temperature 150 °C; S-lens RF 200; source DC offset 25 V, injection flatapole 7 V; inter flatapole 6 V; bent flatapole DC 6 V; EMR mode on. Data were processed using ThermoFisher Protein Deconvolution 3.0.
Target sequence in this assay (P01375 77-233 limits assumed): as the sequence (P01375 77-233) above

[5] = target: T1, TNF; assay: Biacore SPR fragment binding to immobilised TNF; parameters: Human TNF (CID2043, UniProt P01375 residues 77–233); 6XHis-Smt3 (N, cleaved yes); host or cells: E. coli TOP10; details: SPR fragment screen; concentration-dependent response
Description: as §1
Target sequence in this assay (P01375 77-233): as above

`Cc1ccc(C)c(Cn2c(CO)nc3ccccc32)c1` [UCB-6876] showed a Kd ([1]; read-out: KD (kd/ka)) of 22 µM, a kon ([1]; read-out: association rate constant ka) of 923 M⁻¹ s⁻¹ and a koff ([1]; read-out: dissociation rate constant kd) of 0.02 s⁻¹. The “effect of non-ionic detergents on binding to human TNF” value [2] was “does not alter the binding”, the “binding to TNFR1 and control proteins (selectivity)” value [3] was “selectivity over the TNFR1 extracellular domain and control proteins; also recorded: not to control proteins” and the “exchange of mouse and human TNF monomers” value [4] was “blocks the exchange of mouse and human monomers”. The “binding to immobilised TNF” value [5] was “bound to TNF; also recorded: specifically binds to immobilised TNF”.
